Results: ChEMBL document CHEMBL1121445, “Structure-activity analyzed by pattern recognition: the asymmetric case” (J Med Chem, 1980)
Active and inactive are the calls of the source. The rule behind the calls is not given here.

Legend:
Plasmodium berghei [1] = test: Antimalarial activity against Plasmodium berghei; Active; format: functional, organism-based
[2] = Partition coefficient (logP); format: physicochemical; conditions: octanol/water
Plasmodium berghei [3] = test: Antimalarial activity against Plasmodium berghei.; format: functional, organism-based

SMILES | logP ([2]; read-out: logP) | logP [2] | Activity (Plasmodium berghei [1]) | Activity (Plasmodium berghei [3])
COc1ccc(NC2=CC(=O)C(=O)c3ccccc32)cc1 | 1.9 |  | Active | 
COc1ccc(/N=C2/C(Nc3ccc(OC)cc3)=CC(=O)c3ncccc32)cc1 | 4.5 |  |  | Not toxic
O=C1C(=O)c2cc(Cl)ccc2C(O)=C1CCCCC1CCCCC1 | 6.69 |  |  | Not toxic
CCCCCC/N=C1/C=C(O)C(=O)c2ccc(C)nc21 | 1.5 |  |  | Not toxic
O=C1C(=O)c2c(ccc3ccccc23)C(O)=C1CCCC1CCCCC1 | 6.63 |  |  | Not toxic
Cc1ccc2c(c1)C(=O)C(O)=C(CCC(C)C)C2=O | 4.26 |  | Active | 
CCCCCCCCCCC1=C(O)C(=O)c2ccc(OC)cc2C1=O | 6.47 |  |  | Not toxic
CCCCCCCCCCCC1=C(O)C(=O)C=C(O)C1=O [EMBELIN] | 5.04 |  |  | Not toxic
Cc1ccc(NC2=C(Cl)C(=O)C(=O)c3cccnc32)cc1 | 1.5 |  |  | Not toxic
CCCCCN(CCCCC)CCC/N=C1/C=C(O)C(=O)c2ccccc21 | 5.47 |  | Active | 
Cc1ccc2c(c1)C(=O)C(CCC(C)C)=C(O)C2=O | 4.26 |  | Active | 
O=C1C(=O)c2ncccc2C(O)=C1CCCCCCCCC1CCCCC1 | 6.5 |  | Active | 
CCCCCCCCCCC1=C(O)C(=O)c2ccc(Br)cc2C1=O | 7.17 |  |  | Not toxic
O=C1C(=O)C2=C(CCCC2)C(O)=C1CCCC1CCCCC1 | 5.93 |  |  | Not toxic
O=C1C(=O)c2ccc(O)cc2C(O)=C1CCCC1CCCCC1 | 4.64 |  |  | Not toxic
COc1ccc(/N=C2/C(N)=CC(=O)c3ncccc32)cc1 | 1.5 |  |  | Not toxic
CCCCCCCCCCCCCCSC1=C(O)C(=O)c2cccnc2C1=O | 8.62 |  | Active | 

SMILES | logP ([2]; read-out: logP) | logP [2] | Activity (Plasmodium berghei [1]) | Activity (Plasmodium berghei [3])
O=C1C(=O)c2ccccc2C(O)=C1CCCC1CCCCC1 | 5.31 |  | Active | 
Cc1ccc(/N=C2/C(Nc3ccc(C)c(C)c3)=CC(=O)c3ncccc32)cc1C | 5.6 |  |  | Not toxic
CCCCCCCCCCCCSC1=C(O)C(=O)c2cccnc2C1=O | 6.62 |  | Active | 
CCOC(=O)c1ccc(/N=C2/C(Nc3ccc(C(=O)OCC)cc3)=CC(=O)c3ncccc32)cc1 | 4.5 |  |  | Not toxic
NC1=CC(=O)c2ncccc2/C1=N\c1ccc(Cl)cc1 | 2.5 |  |  | Not toxic
CCCCCCCCCCC1=C(O)C(=O)c2cc(OC)ccc2C1=O | 6.47 |  |  | Not toxic
CCCCCCCCCCCCCCCC1=C(O)C(=O)c2cccnc2C1=O | 7.5 |  | Active | 
CCCC/N=C1\C=C(O)c2ncccc2C1=N | 1.5 |  |  | Not toxic
NC1=CC(=O)c2ncccc2/C1=N\c1ccccc1 | 1.5 |  |  | Not toxic
O=C1C(O)=C(CCCCCCCCC2CCCCC2)C(=O)c2ccccc21 [MENOCTONE] | 7.81 |  | Active | 
CCCCCCCCCC1=C(O)C(=O)c2sccc2C1=O | 5.06 |  |  | Not toxic
CCCCCCCCCCCCCCCCCCSC1=C(O)C(=O)c2cccnc2C1=O |  | 9.62 | Active | 
O=C1C(=O)c2cccnc2C(Nc2ccccc2)=C1Cl | 1.3 |  |  | Not toxic
Cc1ccc(/N=C2/C(N)=CC(=O)c3ncccc32)cc1C | 2.5 |  |  | Not toxic
CCCCCCCCCCCCCCCC/N=C1\C=C(O)c2ncccc2C1=O | 7.8 |  |  | Not toxic
O=C1C=C(Nc2ccc(Cl)cc2)/C(=N/c2ccc(Cl)cc2)c2cccnc21 | 5.6 |  |  | Not toxic

Continued, in another order:

logP ([2]; read-out: logP) | logP [2] | SMILES | Activity (Plasmodium berghei [1]) | Activity (Plasmodium berghei [3])
3.28 |  | CCN(CC)C1=CC(=O)C(=O)c2ccccc21 | Active | 
4.37 |  | CC(C)CCC1=C(N)C(=O)c2ccccc2C1=O |  | Not toxic
1.2 |  | NC1=CC(=O)C(=O)c2cccnc21 |  | Not toxic
3.87 |  | CC(C)CCC1=C(O)C(=O)c2ccccc2C1=O | Active | 
3.79 |  | CCN(CC)CCCC/N=C1/C=C(O)C(=O)c2ccccc21 | Active | 
6.11 |  | O=C1C=C(NCCCCC2CCCCC2)c2ccccc2C1=O | Active | 
3.38 |  | CCCCCOC1=CC(=O)C(=O)c2ccccc21 |  | Not toxic
3.38 |  | CCCC(C)COC1=CC(=O)C(=O)c2ccccc21 (stereo unspecified) |  | Not toxic
4.69 |  | CC1=C(CCC(C)C)C(=O)c2ccccc2C1=O |  | Not toxic
1.2 |  | CCOC1=CC(=O)C(=O)c2ccccc21 |  | Not toxic
0.2 |  | CC1=C(O)C(=O)c2ccccc2C1=O |  | Not toxic
4.64 |  | CC(C)CCC1=C(Cl)C(=O)c2ccccc2C1=O |  | Not toxic
4 |  | CC(C)CCC1=CC(=O)c2ccccc2C1=O |  | Not toxic
3.4 |  | CN(C)CCCN(C1=CC(=O)C(=O)c2ccccc21)c1ccccc1 | Active | 
4.1 |  | O=C(CCC1CCCCC1)C1=CC(=O)c2ccccc2C1=O |  | Not toxic
